Key:
[1] = tested on: 3T3-L1 Mouse Adipocytes; experiment: Free fatty acid levels in cultured 3T3-L1 mouse adipocytes (isoproterenol stimulated); assay type: cell-based; settings: free fatty acid in medium; 5 μM peptide, 20-22 h pre-incubation then 3 h with 0.1 nM isoproterenol; isoproterenol alone = 100%
Protocol: The effect of the peptides on fatty acid metabolism can be assessed using an assay to monitor free fatty acid levels produced by cultured cells such as mouse adipocytes. Peptide arrays were initially prepared as 5 mM stock in DMSO and diluted to 0.5 mM in H2O; peptides were used at a final concentration of 5 μM (0.1% DMSO). Calculations for peptide concentrations based on approximate molecular weight of 2000 Daltons. […] Mouse 3T3-L1 cells purchased from ZenBio (Research Triangle Park, NC) were seeded at 3,000 cells per well in 96-well plates in Pre-adipocyte Medium (Zen-Bio) and grown to confluence at 37° C. in a humidified atmosphere of 5% CO2/95% air. Two days after confluence, cells were placed in Adipocyte Differentiation Medium (Zen-Bio) and cultured for three additional days at 37° C. in a humidified atmosphere of 5% CO2/95% air. The culture medium was then replaced with Adipocyte Maintenance Medium (Zen-Bio) and the cells maintained for an additional 9 days at 37° C. in a humidified atmosphere of 5% CO2/95% air with partial medium replacement every other day. Following 12 days of differentiation, medium was replaced Adipocyte Maintenance Medium without insulin and the cultures placed at 37° C. in a humidified atmosphere of 5% CO2/95% air. On day 13 of differentiation, test peptides were added directly to each well (without replacing the medium) at a final concentration of 5 μM in 0.1% DMSO and incubated for 20-22 hours at 37° C. in a humidified atmosphere of 5% CO2/95% air. […] Cells were incubated for 3 hours in Assay Buffer (Zen-Bio) at 37° C. in a humidified atmosphere of 5% CO2/95% air. Following 3 h incubation, conditioned medium from each well was transferred to a fresh 96-well plate. Free fatty acid concentrations in the medium were determined using a Free Fatty Acid Assay kit (Zen-Bio) according to the manufacturer's instructions; absorbance was measured using a Cytation 3 plate reader at 540 nm (BioTek, Winooski, Vt.). Treatment with 0.1 nM isoproterenol alone was used as the free fatty acid level stimulatory control. Absorbance values were expressed as percent control activity relative to 0.1 nM isoproterenol alone treated cells, 100%. The relative standard deviation of the isoproterenol control was <10%. Insulin at 0.25 nM was used as a potent control for decreasing free fatty acid levels. […] Data presented are representative values from 2 independent experiments with each data point performed in triplicate in each independent experiment.

[2] = tested on: C2C12 Cells; experiment: Glucose utilization in cultured C2C12 cells (myotubes); assay type: cell-based, mouse; settings: glucose concentration in medium relative to untreated cells; 5 μM peptide, 22 h
Protocol: The effect of the peptides on glucose homeostasis can be assessed using an assay to monitor glucose utilization by cultured cells such as mouse myotubes. Peptide arrays were initially prepared as 5 mM stock in DMSO and diluted to 0.5 mM in H2O; peptides were used at a final concentration of 5 μM (0.1% DMSO). Calculations for peptide concentrations based on approximate molecular weight of 2000 Daltons. C2C12 mouse muscle cell line was purchased from Millipore Sigma (Saint Louis, Mo.). C2C12 cells were seeded in standard medium (DMEM/low glucose (1 g/L)+10% Fetal Bovine Serum+antibiotics) at 7,500 cells/well on 96-well plates and grown to confluence at 37° C. in a humidified atmosphere of 5% CO2/95% air. Three days after plating the medium was removed and with Differentiation Medium (DMEM/low glucose (1 g/L)+2% Horse Serum+antibiotics) added. The cultures were placed at 37° C. in a humidified atmosphere of 5% CO2/95% air for 5 days with partially replacement of medium daily. After 5 days of differentiation, the medium was removed from myotube cultures and replaced with Assay Medium (DMEM/low glucose (1 g/L)+antibiotics). Culture were placed at 37° C. in a humidified atmosphere of 5% CO2/95% air for 5 h. Following the 5 h incubation the medium was removed and fresh Assay Medium containing compounds was added; 5 μM peptide or 1 mM metformin as a potent stimulator of glucose utilization. Cells were incubated for 22 h at 37° C. in a humidified atmosphere of 5% CO2/95% air. Following 22 h incubation, conditioned medium from each well was transferred to a fresh 96-well plate. Glucose concentrations in the medium were determined using a Glucose Assay kit (Abcam; Cambridge, Mass.) according to the manufacturer's instructions; absorbance measured using a Cytation 3 plate reader at 570 nm (BioTek, Winooski, Vt.). Untreated cells were used as reference for basal glucose utilization. Absorbance values were expressed as percent control activity relative to untreated treated cells for 5 μM peptide. The relative standard deviation from plate to plate of untreated control was <10%. […] Data presented are representative values from 2-3 independent experiments with each data point performed in triplicate in each independent experiment.

[3] = tested on: H4-IIE Cells; experiment: Glucose production in cultured H4-IIE cells; assay type: cell-based, rat; settings: glucose concentration in medium relative to untreated cells; 5 μM peptide, 24 h
Protocol: The effect of the peptides on glucose homeostasis can be assessed using an assay to monitor glucose production by cultured cells such as rat hepatocytes. Peptide arrays were initially prepared as 5 mM stock in DMSO and diluted to 0.5 mM in H2O; peptides were used at a final concentration of 5 μM (0.1% DMSO). Calculations for peptide concentrations based on approximate molecular weight of 2000 Daltons. H4-IIE rat hepatic cell line was purchased from American Type Culture Collection (Manassas, Va.). H4-IIE cells were seeded in standard medium (DMEM/high glucose+10% Fetal Bovine Serum+antibiotics) at 100,000 cells/well on 96-well plates and allowed to adhere overnight at 37° C. in a humidified atmosphere of 5% CO2/95% air. 24 h after seeding, the medium was removed, cells were rinsed with glucose free DMEM, and the medium replaced with Glucose Production Medium (glucose free DMEM+2 mM sodium pyruvate+10 mM sodium lactate+antibiotics). The cultures were placed at 37° C. in a humidified atmosphere of 5% CO2/95% air overnight. The next morning, the medium was removed and fresh Glucose Production Medium containing compounds was added; 5 uM peptide or 0.5-1 nM insulin as a potent inhibitor of glucose production. Cells were incubated for 24 h at 37° C. in a humidified atmosphere of 5% CO2/95% air. Following 24 h incubation, conditioned medium from each well was transferred to a fresh 96-well plate. Glucose concentrations in the medium were determined using a Glucose Assay kit (Abcam; Cambridge, Mass.) according to the manufacturer's instructions; absorbance measured using a Cytation 3 plate reader at 570 nm (BioTek, Winooski, Vt.). Untreated cells were used as reference for maximal glucose production. Absorbance values were expressed as percent control activity relative to untreated treated cells for 5 μM peptide. The relative standard deviation from plate to plate of untreated control was <25%. […] Glucose levels for 0.5-1 nM insulin treatment were <5% of the untreated control value. Data are presented as representative values from 2-3 independent experiments with each data point performed in triplicate in each independent experiment.

| Substance | Percent of Isoproterenol Control Activity [1] [%] | Percent of Control Activity [2] [%] | Percent of Control Activity [3] [%] |
| --- | --- | --- | --- |
| 37 (MGLLEWLLCWHLLGRIINWWA) [compound 37] | 106 | 109 | 103 |
| 38 (MGLWLVCWVL) [compound 38] | 103 | 108 | 111 |
| 39 (MGNIIRAWCGEGCL) [compound 39] | 99 | 107 | 114 |
| 40 (MGSPPPAGSKKVVL) [compound 40] | 95 | 109 | 109 |
| 41 (MGSSRINPDPSPS) [compound 41] | 99 | 109 | 108 |
| 42 (MGSSRLAVLCPPLHGQVNFTG) [compound 42] | 106 | 107 | 112 |
| 43 (MGVGMEWGLLLRRGR) [compound 43] | 103 | 101 | 112 |
| 44 (MGVKFFTLST) [compound 44] | 112 | 103 | 103 |
| 45 (MHGELPWVVN) [compound 45] | 98 | 108 | 107 |
| 46 (MHHMKHPIIC) [compound 46] | 98 | 104 | 106 |
| 47 (MHKHYYNKHPHHYNLP) [compound 47] | 96 | 103 | 107 |
| 48 (MHKRLSPIYYSHRYLPDKRL) [compound 48] | 91 | 104 | 101 |
| 49 (MHLVFSSGGYARDSIA) [compound 49] | 87 | 108 | 104 |
| 50 (MHQSCKPEMKTFFQGQI) [compound 50] | 100 | 99 | 106 |
| 51 (MIEMGASFCHV) [compound 51] | 89 | 103 | 111 |
| 52 (MITVPAHKGMAMA) [compound 52] | 92 | 104 | 107 |
| 53 (MIYVSSDVGDWWKGGWGVWWVVHG) [compound 53] | 91 | 101 | 115 |

| Substance | Percent of Isoproterenol Control Activity [1] [%] | Percent of Control Activity [2] [%] | Percent of Control Activity [3] [%] |
| --- | --- | --- | --- |
| 54 (MKFEIWLGWC) [compound 54] | 104 | 103 | 113 |
| 55 (MKHRQVLWVLSCGS) [compound 55] | 98 | 103 | 118 |
| 56 (MKNHRCISTT) [compound 56] | 89 | 104 | 112 |
| 57 (MKPFTVHSTLQSNPFSSPWMTPL) [compound 57] | 102 | 107 | 112 |
| 58 (MKPMSPMRLY) [compound 58] | 105 | 101 | 112 |
| 59 (MKSPSTLTTQSKTPSAYFSSFSP) [compound 59] | 100 | 108 | 108 |
| 60 (MLEIVMGMETYHMSNA) [compound 60] | 94 | 101 | 105 |
| 61 (MLFMRGNAMSGAPII) [compound 61] | 86 | 104 | 107 |
| 62 (MLGVVGWCRL) [compound 62] | 94 | 91 | 106 |
| 65 (MLKPETSSDSPSA) [compound 65] | 99 | 99 | 102 |
| 66 (MLLGWRFQLGAWVGGLQ) [compound 66] | 104 | 101 | 101 |
| 67 (MLLMWWVSEPHCVVVNM) [compound 67] | 116 | 88 | 107 |
| 68 (MLLNSHRCSMSKDNHHSP) [compound 68] | 99 | 99 | 105 |
| 69 (MLMVEWWLGWLHM) [compound 69] | 104 | 107 | 111 |
| 70 (MLNWSNNLTNGTSYP) [compound 70] | 110 | 118 | 105 |
| 71 (MLPLHIYHNTMGLTHPPH) [compound 71] | 89 | 105 | 107 |
